Test results: patent US7550510B2, “Solid phase synthesis of arylretinamides” (Wisconsin Alumni Research Foundation, priority 2001, dated 2009)

Experiments:
MCF-7 cells [1] = test: Induction of apoptosis in MCF-7 cells, TUNEL assay; type: cell-based; conditions: MCF-7 human breast cancer cell line, FIG. 4
From the text: When DNA strands are cleaved or nicked by nucleases, a large number of 3′-hydroxyl ends are exposed. In the TUNEL assay (terminal deoxynucleotidyl transferase dUTP nick end labeling), these ends are labeled with UTP using mammalian terminal deoxynucleotidyl transferase (TdT), which covalently adds labeled nucleotides to the 3′-hydroxyl ends of these DNA fragments in a template-independent fashion. The UTP is then detected using specific probes (e.g., you can incorporate BrdUTP and then use a fluorescent anti-BrdU antibody). The assay can be used on cells in situ or the cells can be analyzed by flow cytometry.
The ability of arylretinamides 1, 7, 10, 11, 18, 19, 27, 32, 33, 41, 42, and 44 to induce apoptosis in MCF-7 cells was determined using a TUNEL assay as described in Engeland, M V; Nieland, L J W; Ramackers, F C S; Schutte, B; Reutelingsperger, CPM Cytometry 1998, 31, 1, which is specifically incorporated by reference.

MCF-7 cells [2] = test: Inhibition of growth of cultured MCF-7 cells (cell number 48 h after a single dose); type: cell-based, human; conditions: activity vs. 4-HPR standard
Method: MCF-7 cells were maintained in DMEM supplemented as recommended by ATCC. Cells were plated (10,000/well) and dosed 24 h later dosed with the arylretinamide.

[3] = all at 10^−5 M, 48 hours after a single dose

| melting point | Structure (SMILES) | growth inhibition (MCF-7 cells [2]; [3]) | further results |
| --- | --- | --- | --- |
| 141 to 145 °C | CC1=C(/C=C/C(C)=C/C=C/C(C)=C/C(=O)Nc2ccc(O)cc2C)C(C)(C)CCC1 [Compound 1, N-(2′-methyl-4′-hydroxyphenyl)retinamide] | − | inducing apoptosis of cells (MCF-7 cells [1]): effective at inducing apopotosis |
| 146 to 147.5 °C | CC1=C(/C=C/C(C)=C/C=C/C(C)=C/C(=O)Nc2ccc(C)cc2O)C(C)(C)CCC1 [Compound 3, N-(2′-hydroxy-4′-methylphenyl)retinamide] | − |  |
| 98 to 100 °C | CC1=C(/C=C/C(C)=C/C=C/C(C)=C/C(=O)Nc2cc(C)ccc2O)C(C)(C)CCC1 [Compound 4, N-(2′-hydroxy-5′-methylphenyl)retinamide] | − |  |
| 172.5 to 175 °C | CC1=C(/C=C/C(C)=C/C=C/C(C)=C/C(=O)Nc2ccc(C)c(O)c2)C(C)(C)CCC1 [Compound 7, N-(3′-hydroxy-4′-methylphenyl)retinamide] | + (+ = <50% the activity of standard) | inducing apoptosis of cells (MCF-7 cells [1]): effective at inducing apopotosis |
| 176 to 176.5 °C | CC1=C(/C=C/C(C)=C/C=C/C(C)=C/C(=O)Nc2cccc(O)c2C)C(C)(C)CCC1 [Compound 8, N-(3′-hydroxy-2′-methylphenyl)retinamide] | − |  |
| 131.5 to 132.5 °C | CC1=C(/C=C/C(C)=C/C=C/C(C)=C/C(=O)Nc2ccc(O)cc2Cl)C(C)(C)CCC1 [Compound 10, N-(2′-chloro-4′-hydroxyphenyl)retinamide] | − |  |
| 168 to 169 °C | CC1=C(/C=C/C(C)=C/C=C/C(C)=C/C(=O)Nc2ccc(O)c(Cl)c2)C(C)(C)CCC1 [Compound 11, N-(3′-chloro-4′-hydroxyphenyl)retinamide] | + (+ = <50% the activity of standard) | inducing apoptosis of cells (MCF-7 cells [1]): effective at inducing apopotosis |
| 115 to 118 °C | CC1=C(/C=C/C(C)=C/C=C/C(C)=C/C(=O)Nc2cc(Cl)ccc2O)C(C)(C)CCC1 [Compound 12, N-(5′-chloro-2′-hydroxyphenyl)retinamide] | − |  |
| 152 to 153.5 °C | CC1=C(/C=C/C(C)=C/C=C/C(C)=C/C(=O)Nc2ccc([N+](=O)[O-])cc2O)C(C)(C)CCC1 [Compound 18, N-(2′-hydroxy-4′-nitrophenyl)retinamide] | ++ (++ = >50% the activity of standard) | inducing apoptosis of cells (MCF-7 cells [1]): effective at inducing apopotosis |
| 145 to 147 °C | CCS(=O)(=O)c1ccc(NC(=O)/C=C(C)/C=C/C=C(C)/C=C/C2=C(C)CCCC2(C)C)c(O)c1 [Compound 30, N-(4′-ethylsulfonyl-2′-hydroxyphenyl)retinamide] | − |  |

Second part, the compound before the results:

| Structure (SMILES) | melting point | growth inhibition (MCF-7 cells [2]; [3]) | further results |
| --- | --- | --- | --- |
| CC1=C(/C=C/C(C)=C/C=C/C(C)=C/C(=O)Nc2cc(C)c(O)cc2C)C(C)(C)CCC1 [Compound 2, N-(4′-hydroxy-2′,5′-dimethylphenyl)retinamide] |  | − |  |
| CC1=C(/C=C/C(C)=C/C=C/C(C)=C/C(=O)Nc2cc(C(C)(C)C)ccc2O)C(C)(C)CCC1 [Compound 5, N-(2′-hydroxy-5′-tert-butylphenyl)retinamide] | 144 to 146.5 °C | − |  |
| CC1=C(/C=C/C(C)=C/C=C/C(C)=C/C(=O)Nc2c(C)cccc2O)C(C)(C)CCC1 [Compound 6, N-(2′-hydroxy-6′-methylphenyl)retinamide] |  | − |  |
| COc1ccc(NC(=O)/C=C(C)/C=C/C=C(C)/C=C/C2=C(C)CCCC2(C)C)cc1O [Compound 9, N-(3′-hydroxy-4′-methoxyphenyl)retinamide] | 119 to 124 °C | − |  |
| CC1=C(/C=C/C(C)=C/C=C/C(C)=C/C(=O)Nc2cc(Cl)c(O)c(Cl)c2)C(C)(C)CCC1 [Compound 13, N-(3′,5′-dichloro-4′-hydroxyphenyl)retinamide] | 139 to 140 °C | − |  |
| CC1=C(/C=C/C(C)=C/C=C/C(C)=C/C(=O)Nc2cc(Br)c(O)c(Br)c2)C(C)(C)CCC1 [Compound 14, N-(3′,5′-dibromo-4′-hydroxyphenyl)retinamide] |  | − |  |
| CC1=C(/C=C/C(C)=C/C=C/C(C)=C/C(=O)Nc2cc(Cl)c(C)c(Cl)c2O)C(C)(C)CCC1 [Compound 15, N-(3′,5′-dichloro-2′-hydroxy-4′-methylphenyl)retinamide] | 140 to 142 °C | − |  |
| CC1=C(/C=C/C(C)=C/C=C/C(C)=C/C(=O)Nc2ccc(O)cc2[N+](=O)[O-])C(C)(C)CCC1 [Compound 16, N-(4′-hydroxy-2′-nitrophenyl)retinamide] | 112 to 117 °C | − |  |
| CC1=C(/C=C/C(C)=C/C=C/C(C)=C/C(=O)Nc2ccc(O)c([N+](=O)[O-])c2)C(C)(C)CCC1 [Compound 17, N-(4′-hydroxy-3′-nitrophenyl)retinamide] | 157 to 159.5 °C | − |  |
| CC1=C(/C=C/C(C)=C/C=C/C(C)=C/C(=O)Nc2cc([N+](=O)[O-])ccc2O)C(C)(C)CCC1 [Compound 19, N-(2′-hydroxy-5′-nitrophenyl)retinamide] | 151.5 to 153 °C | ++ (++ = >50% the activity of standard) |  |
| COC(=O)c1cccc(NC(=O)/C=C(C)/C=C/C=C(C)/C=C/C2=C(C)CCCC2(C)C)c1O [Compound 20, N-(2′-hydroxy-3′-carboxymethylphenyl)retinamide] |  | − |  |
| CC1=C(/C=C/C(C)=C/C=C/C(C)=C/C(=O)Nc2cccc(C(=O)O)c2O)C(C)(C)CCC1 [Compound 21, N-(2′-hydroxy-3′-carboxyphenyl)retinamide] |  | − |  |
| CC1=C(/C=C/C(C)=C/C=C/C(C)=C/C(=O)Nc2ccc(C(=O)O)cc2O)C(C)(C)CCC1 [Compound 22, N-(2′-hydroxy-4′-carboxyphenyl)retinamide] |  | − |  |
| CC1=C(/C=C/C(C)=C/C=C/C(C)=C/C(=O)Nc2c(O)cccc2C(=O)O)C(C)(C)CCC1 [Compound 24, N-(2′-hydroxy-6′-carboxyphenyl)retinamide] |  |  | growth inhibition (MCF-7 cells [2]; compound at 3.9 × 10^−6 M): − |
| CC1=C(/C=C/C(C)=C/C=C/C(C)=C/C(=O)Nc2ccc(C(=O)O)c(O)c2)C(C)(C)CCC1 [Compound 26, N-(3′-hydroxy-4′-carboxyphenyl)retinamide] |  | − |  |
| COC(=O)c1cc(NC(=O)/C=C(C)/C=C/C=C(C)/C=C/C2=C(C)CCCC2(C)C)ccc1O [Compound 27, N-(4′-hydroxy-3′-carboxymethylphenyl)retinamide] |  | + (+ = <50% the activity of standard) |  |
| CC1=C(/C=C/C(C)=C/C=C/C(C)=C/C(=O)Nc2ccc(O)c(C(=O)O)c2)C(C)(C)CCC1 [Compound 28, N-(4′-hydroxy-3′-carboxyphenyl)retinamide] |  | − |  |
| COC(=O)c1ccc(O)c(NC(=O)/C=C(C)/C=C/C=C(C)/C=C/C2=C(C)CCCC2(C)C)c1 [Compound 29, N-(2′-hydroxy-5′-carboxymethylphenyl)retinamide] |  | − |  |
| CC1=C(/C=C/C(C)=C/C=C/C(C)=C/C(=O)Nc2ccccc2CO)C(C)(C)CCC1 [Compound 31, N-(2′-hydroxymethylphenyl)retinamide] | 72 to 74 °C |  |  |
| CC1=C(/C=C/C(C)=C/C=C/C(C)=C/C(=O)Nc2cccc(CO)c2)C(C)(C)CCC1 [Compound 32, N-(3′ hydroxymethylphenyl)retinamide] | 118 to 120.5 °C | + (+ = <50% the activity of standard) | inducing apoptosis of cells (MCF-7 cells [1]): perhaps, 32 are effective at inducing apopotosis |
| CC1=C(/C=C/C(C)=C/C=C/C(C)=C/C(=O)Nc2ccc(N)cc2)C(C)(C)CCC1 [Compound 33, N-(4′-aminophenyl)retinamide] |  | + (+ = <50% the activity of standard) |  |
| CC1=C(/C=C/C(C)=C/C=C/C(C)=C/C(=O)Nc2ccc(O)cc2)C(C)(C)CCC1 [Compound 41, N-(4′-hydroxyphenyl)retinamide, reference compound] |  | ++ (++ = >50% the activity of standard) |  |
| CC(C=CC1=C(C)CCCC1(C)C)=CC=CC(C)=CC(=O)Nc1ccccc1C(=O)O [Compound 44, N-(2′-carboxyphenyl)retinamide, reference compound] |  | + (+ = <50% the activity of standard) |  |
| CCOc1ccc(NC(=O)/C=C(C)/C=C/C=C(C)/C=C/C2=C(C)CCCC2(C)C)cc1 [Compound 45, N-(4′-ethoxyphenyl)retinamide, reference compound] |  |  | growth inhibition (MCF-7 cells [2]; compound at 7.4 × 10^−6 M): − |
